# Test results taken from US20250275953A1, “VODOBATINIB FOR REDUCING PROGRESSION OF PARKINSON'S DISEASE” (Sun Pharma Advanced Research Company Ltd., priority 2022, published 2025).
# Several values for one entry are separate records, joined by “and”; a condition that tells them apart may be missing. Equal entries are not always repeated. Where two headings read alike, the source gives them in different places.
# Assay: Plasma pharmacokinetics, Parkinson's disease patients, once daily for 14 days
# Format: in vivo, human
# Conditions: PD patients
# Excerpt: Of these, 44 subjects completed the study. An additional 10 subjects were enrolled in the open label part of the study, of these, one subject was discontinued due to an AE of vomiting.
# Safety population was comprised of 48 subjects (not including those in the open label cohorts) and PK population was comprised of 36 subjects from double blind part and 10 subjects from open label part of the study. No subjects were discontinued from the study due to protocol deviation.
# The PK analysis was performed on the PK population and safety analysis was performed on this population as per the protocol described before.
# Study NCT02970019 was a multi-center safety and tolerability study of vodobatinib in 60 subjects with Parkinson's Disease (diagnosed with PD according to the Brain Bank criteria of the United Kingdom Parkinson's Disease Society) who were randomized to receive placebo or various daily doses of vodobatinib for 14 days in a parallel assignment design with quadruple masking (participant, care provider, investigator, and outcomes assessor.) In study NCT02970019, consecutive cohorts of up to eight subjects received once-daily doses of 6, 12, 18, 24, 48, 96, 192, or 384 mg of study drug for 14 days, with six subjects in each cohort on vodobatinib and two subjects in each cohort on placebo. An alternating panel design was used such that subjects in the 6 and 18 mg cohorts were the same, and subjects in the 12 and 24 mg cohorts were the same, thus yielding 48 total individuals enrolled in the eight cohorts. There was a wash-out period of 14 days between each were studied in sequential ascending dose cohorts. In parallel to the double-blind cohorts, up to four subjects per dose cohort were enrolled in an open-label study of vodobatinib to receive 24, 48 or 96 mg once-daily doses of for 14 days. These subjects underwent lumbar puncture to collect CSF on Day 1, and 2-3 h after the last morning dose on Day 14. PK blood draws (for both double-blind and open label) were collected at pre-dose (˜30 min) and at 0.5, 1, 2, 4, 8, 12 and 24 h post-dose on Days 1 and 14.
# Vodobatinib levels in plasma and CSF were determined using a fully validated LC-MS/MS assay with lower limits of quantitation (LLOQ) of 2.5 ng/mL and 0.05 ng/mL, respectively. PK analyses were performed using standard non-compartmental analysis with Phoenix® WinNonlin® software Version 6.4 to estimate the PK parameters Cmax, Tmax, AUCtau and Css. Descriptive statistics were used to characterize vodobatinib concentrations and PK parameters in plasma and CSF. Statistical calculations were performed with SAS software (Version 9.4, SAS Institute, Cary, North Carolina, USA).
smiles,measurement,setting,value
Cc1ccc(C(=O)NNC(=O)c2c(C)cccc2Cl)cc1C#Cc1cnc2ccccc2c1 [N′-(2-chloro-6-methylbenzoyl)-4-methyl-3-[2-(3-quinolyl)ethynyl]-benzohydrazide],Max Conc Geo. Mean,6 mg,138.72 ng/mL
same,Max Conc Mean,6 mg,182 ng/mL and 181.67 ng/mL
same,Max Conc Median,6 mg,133.50 ng/mL
same,Max Conc Geo. Mean,12 mg,270.17 ng/mL
same,Max Conc Mean,12 mg,301.00 ng/mL
same,Max Conc Median,12 mg,242.50 ng/mL
same,Max Conc Geo. Mean,18 mg,300.12 ng/mL
same,Max Conc Mean,18 mg,308.50 ng/mL
same,Max Conc Median,18 mg,310.00 ng/mL
same,Max Conc Geo. Mean,24 mg,677.41 ng/mL
same,Max Conc Mean,24 mg,715.25 ng/mL
same,Max Conc Median,24 mg,657.00 ng/mL
same,Max Conc Geo. Mean,48 mg,930.30 ng/mL
same,Max Conc Mean,48 mg,1110.44 ng/mL
same,Max Conc Median,48 mg,844.00 ng/mL
same,Max Conc Geo. Mean,96 mg,2298.86 ng/mL
same,Max Conc Mean,96 mg,2802.50 ng/mL
same,Max Conc Median,96 mg,2350.00 ng/mL
same,Max Conc Geo. Mean,192 mg,2561.39 ng/mL
same,Max Conc Mean,192 mg,3233.80 ng/mL
same,Max Conc Median,192 mg,2580.00 ng/mL
same,Max Conc Geo. Mean,384 mg,4198.52 ng/mL
same,Max Conc Mean,384 mg,4512 ng/mL and 4512.00 ng/mL
same,Max Conc Median,384 mg,5320.00 ng/mL
same,AUC(0-t),"human, 6 mg, Day 14, plasma, read-out: AUC0-24 Mean",1250 ng·h/mL
same,AUC,"human, 6 mg, read-out: AUC Over Dosing Interval Geo. Mean",1090 ng·h/mL
same,AUC,"human, 6 mg, read-out: AUC Over Dosing Interval Mean",1250 ng·h/mL
same,AUC,"human, 6 mg, read-out: AUC Over Dosing Interval Median",1040 ng·h/mL
same,AUC,"human, 6 mg, read-out: AUC Over Dosing Interval Min, Max",470 to 2360 ng·h/mL
same,half-life,"human, 6 mg, read-out: Half-Life Lambda Z Geo. Mean (converted)",11.1 h
same,half-life,"human, 6 mg, read-out: Half-Life Lambda Z Mean (converted)",11.1 h
same,half-life,"human, 6 mg, read-out: Half-Life Lambda Z Median (converted)",11.1 h
same,half-life,"human, 6 mg, read-out: Half-Life Lambda Z Min, Max (converted)",11.1 h
same,AUC,"human, 12 mg, read-out: AUC Over Dosing Interval Geo. Mean",2710 ng·h/mL
same,AUC,"human, 12 mg, read-out: AUC Over Dosing Interval Mean",3250 ng·h/mL
same,AUC,"human, 12 mg, read-out: AUC Over Dosing Interval Median",2530 ng·h/mL
same,AUC,"human, 12 mg, read-out: AUC Over Dosing Interval Min, Max",1440 to 8240 ng·h/mL
same,AUC,"human, 18 mg, read-out: AUC Over Dosing Interval Geo. Mean",2860 ng·h/mL
same,AUC,"human, 18 mg, read-out: AUC Over Dosing Interval Mean",3370 ng·h/mL
same,AUC,"human, 18 mg, read-out: AUC Over Dosing Interval Median",4160 ng·h/mL
same,AUC,"human, 18 mg, read-out: AUC Over Dosing Interval Min, Max",908 to 4260 ng·h/mL
same,half-life,"human, 18 mg, read-out: Half-Life Lambda Z Mean (converted)",13.5 h
same,half-life,"human, 18 mg, read-out: Half-Life Lambda Z Median (converted)",13.5 h
same,half-life,"human, 18 mg, read-out: Half-Life Lambda Z Min, Max (converted)",13.5 h
same,AUC,"human, 24 mg, read-out: AUC Over Dosing Interval Geo. Mean",5250 ng·h/mL
same,AUC,"human, 24 mg, read-out: AUC Over Dosing Interval Mean",5720 ng·h/mL
same,AUC,"human, 24 mg, read-out: AUC Over Dosing Interval Median",6640 ng·h/mL
same,AUC,"human, 24 mg, read-out: AUC Over Dosing Interval Min, Max",2460 to 8080 ng·h/mL
same,half-life,"human, 24 mg, read-out: Half-Life Lambda Z Geo. Mean (converted)",10.5 h
same,half-life,"human, 24 mg, read-out: Half-Life Lambda Z Mean (converted)",10.6 h
same,half-life,"human, 24 mg, read-out: Half-Life Lambda Z Median (converted)",10.6 h
same,half-life,"human, 24 mg, read-out: Half-Life Lambda Z Min, Max (converted)",8.9 to 12.4 h
same,AUC,"human, 48 mg, read-out: AUC Over Dosing Interval Geo. Mean",7010 ng·h/mL
same,AUC,"human, 48 mg, read-out: AUC Over Dosing Interval Mean",7910 ng·h/mL
same,AUC,"human, 48 mg, read-out: AUC Over Dosing Interval Median",8670 ng·h/mL
same,AUC,"human, 48 mg, read-out: AUC Over Dosing Interval Min, Max",2910 to 14200 ng·h/mL
same,half-life,"human, 48 mg, read-out: Half-Life Lambda Z Geo. Mean (converted)",16.6 h
same,half-life,"human, 48 mg, read-out: Half-Life Lambda Z Mean (converted)",19.6 h
same,half-life,"human, 48 mg, read-out: Half-Life Lambda Z Median (converted)",11.3 h
same,half-life,"human, 48 mg, read-out: Half-Life Lambda Z Min, Max (converted)",11.2 to 36.3 h
same,AUC,"human, 96 mg, read-out: AUC Over Dosing Interval Geo. Mean",15100 ng·h/mL
same,AUC,"human, 96 mg, read-out: AUC Over Dosing Interval Mean",17100 ng·h/mL
